Reference: PubChem BioAssay AID220 (DTP/NCI, 2004)
Several values for one entry are separate records, joined by “and”; a condition that tells them apart may be missing. Identical values can stand only once. Results filed as inconclusive are left out.

System: CD8F1 mice, subcutaneous mammary adenocarcinoma, T/C%
Test: NCI In Vivo Anticancer Drug Screen. Data for tumor model Mammary Adenocarcinoma CD8F1 (subcutaneous) in CD8F1
Settings: higher = larger tumour
Procedure, shortened: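 Ratio of treated to vehicle-control outcome, based on either survival or tumor size, in mice bearing transplantable tumors given the test compound.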

[1] = endpoint: median tumor weight change, dose: 125.0 mg/kg/injection, schedule: Q01DX001 (ip), vehicle: saline with Tween-80
[2] = endpoint: median tumor weight change, dose: 250.0 mg/kg/injection, schedule: Q01DX001 (ip), vehicle: saline with Tween-80
[3] = endpoint: median tumor weight (est.), dose: 50.0 mg/kg/injection, schedule: Q07DX005 (ip), vehicle: saline
[4] = endpoint: median tumor weight (est.), dose: 100.0 mg/kg/injection, schedule: Q07DX005 (ip), vehicle: saline
[5] = endpoint: median tumor weight (est.), dose: 200.0 mg/kg/injection, schedule: Q07DX005 (ip), vehicle: saline
[6] = endpoint: median tumor weight (est.), dose: 6.25 mg/kg/injection, schedule: Q07DX005 (ip), vehicle: saline with Tween-80
[7] = endpoint: median tumor weight (est.), dose: 12.5 mg/kg/injection, schedule: Q07DX005 (ip), vehicle: saline with Tween-80
[8] = endpoint: median tumor weight (est.), dose: 25.0 mg/kg/injection, schedule: Q07DX005 (ip), vehicle: saline with Tween-80
[9] = endpoint: median tumor weight (est.), dose: 50.0 mg/kg/injection, schedule: Q07DX005 (ip), vehicle: saline with Tween-80
[10] = endpoint: median tumor weight (est.), dose: 12.5 mg/kg/injection, schedule: Q07DX005 (ip), vehicle: Klucel (hydroxypropylcellulose) (HPC)
[11] = endpoint: median tumor weight (est.), dose: 25.0 mg/kg/injection, schedule: Q07DX005 (ip), vehicle: Klucel (hydroxypropylcellulose) (HPC)
[12] = endpoint: median tumor weight (est.), dose: 50.0 mg/kg/injection, schedule: Q07DX005 (ip), vehicle: Klucel (hydroxypropylcellulose) (HPC)
[13] = endpoint: median tumor weight (est.), dose: 100.0 mg/kg/injection, schedule: Q07DX005 (ip), vehicle: Klucel (hydroxypropylcellulose) (HPC)
[14] = endpoint: median tumor weight change, dose: 125.0 mg/kg/injection, schedule: Q01DX001 (ip), vehicle: saline
[15] = endpoint: median tumor weight change, dose: 250.0 mg/kg/injection, schedule: Q01DX001 (ip), vehicle: saline
[16] = endpoint: median tumor weight change, dose: 500.0 mg/kg/injection, schedule: Q01DX001 (ip), vehicle: saline
[17] = endpoint: median tumor weight change, dose: 1000.0 mg/kg/injection, schedule: Q01DX001 (ip), vehicle: saline

NS(=O)(=O)OCCCCCCCOS(N)(=O)=O
T/C (endpoint: median tumor weight change, dose: 62.0 mg/kg/injection, schedule: Q01DX001 (ip), vehicle: saline with Tween-80): 66 % of control
T/C (endpoint: median tumor weight change, dose: 62.5 mg/kg/injection, schedule: Q01DX001 (ip), vehicle: saline with Tween-80): 22 % of control
T/C [1]: 33 % of control and 34 % of control
T/C [2]: -27 % of control and -36 % of control

O=C1C=CN(C2OC(CO)C(O)C2O)C(=O)C1 (configuration not stated)
T/C (endpoint: median tumor weight (est.), dose: 12.5 mg/kg/injection, schedule: Q07DX005 (ip), vehicle: saline): 97 % of control
T/C (endpoint: median tumor weight (est.), dose: 25.0 mg/kg/injection, schedule: Q07DX005 (ip), vehicle: saline): 99 % of control
T/C [3]: 101 % of control
T/C [4]: 120 % of control
T/C [5]: 78 % of control

Cc1ccc(N)c(N)c1
T/C [1]: 65 % of control
T/C [2]: 48 % of control
T/C (endpoint: median tumor weight change, dose: 500.0 mg/kg/injection, schedule: Q01DX001 (ip), vehicle: saline with Tween-80): 75 % of control

O=C(CO)c1ccc([N+](=O)[O-])cc1
T/C [6]: 117 % of control
T/C [7]: 112 % of control
T/C [8]: 91 % of control
T/C [9]: 118 % of control
T/C (endpoint: median tumor weight (est.), dose: 200.0 mg/kg/injection, schedule: Q07DX005 (ip), vehicle: saline with Tween-80): 86 % of control

CCNC(=O)[B-][N+](C)(C)C
T/C (endpoint: median tumor weight change, dose: 50.0 mg/kg/injection, schedule: Q01DX001 (ip), vehicle: Klucel (hydroxypropylcellulose) (HPC)): 101 % of control
T/C (endpoint: median tumor weight change, dose: 100.0 mg/kg/injection, schedule: Q01DX001 (ip), vehicle: Klucel (hydroxypropylcellulose) (HPC)): 108 % of control
T/C (endpoint: median tumor weight change, dose: 200.0 mg/kg/injection, schedule: Q01DX001 (ip), vehicle: Klucel (hydroxypropylcellulose) (HPC)): 97 % of control
T/C (endpoint: median tumor weight change, dose: 400.0 mg/kg/injection, schedule: Q01DX001 (ip), vehicle: Klucel (hydroxypropylcellulose) (HPC)): 72 % of control

[Cl][Pt+2][Cl].[NH-]CC1(C[NH-])CCC1
T/C (endpoint: median tumor weight change, dose: 12.5 mg/kg/injection, schedule: Q01DX001 (ip), vehicle: suspension in saline): 79 % of control

C[C@@H]1C[C@H]2[C@@H]3CCC4=CC(=O)C=C[C@]4(C)[C@@]3(F)[C@@H](O)C[C@]2(C)[C@@]1(O)C(=O)CO
T/C (endpoint: median tumor weight (est.), dose: 6.25 mg/kg/injection, schedule: Q07DX005 (ip), vehicle: Klucel (hydroxypropylcellulose) (HPC)): 88 % of control
T/C [10]: 32 % of control
T/C [11]: 31 % of control
T/C [12]: 12 % of control
T/C [13]: 7 % of control

N#CC(=C1SCS1)[N+](=O)[O-]
T/C (endpoint: median tumor weight change, dose: 7.5 mg/kg/injection, schedule: Q01DX001 (ip), vehicle: saline with Tween-80): 83 % of control
T/C (endpoint: median tumor weight change, dose: 15.0 mg/kg/injection, schedule: Q01DX001 (ip), vehicle: saline with Tween-80): 90 % of control
T/C (endpoint: median tumor weight change, dose: 30.0 mg/kg/injection, schedule: Q01DX001 (ip), vehicle: saline with Tween-80): 152 % of control
T/C (endpoint: median tumor weight change, dose: 60.0 mg/kg/injection, schedule: Q01DX001 (ip), vehicle: saline with Tween-80): 48 % of control

C[N+](C)(C)c1cc2c(nn1)Nc1ccccc1S2
T/C [10]: 86 % of control
T/C [11]: 106 % of control
T/C [12]: 107 % of control
T/C [13]: 116 % of control

CC(=O)[C@H]1CC[C@H]2[C@@H]3C[C@H](C)C4=CC(=O)CC[C@]4(C)[C@H]3C(=O)C[C@]12C
T/C (endpoint: mean tumor weight (est.), dose: 200.0 mg/kg/injection, schedule: Q07DX003 (ip), vehicle: saline): 67 % of control
T/C (endpoint: mean tumor weight (est.), dose: 400.0 mg/kg/injection, schedule: Q07DX003 (ip), vehicle: saline): 61 % of control
T/C (endpoint: mean tumor weight (est.), dose: 800.0 mg/kg/injection, schedule: Q07DX003 (ip), vehicle: saline): 86 % of control
T/C (endpoint: mean tumor weight, dose: 200.0 mg/kg/injection, schedule: Q07DX005 (ip), vehicle: saline): 107 % of control
T/C (endpoint: mean tumor weight, dose: 200.0 mg/kg/injection, schedule: Q07DX006 (ip), vehicle: saline): 63 % of control
T/C (endpoint: mean tumor weight, dose: 200.0 mg/kg/injection, schedule: Q07DX007 (ip), vehicle: saline): 90 % of control
T/C (endpoint: mean tumor weight, dose: 400.0 mg/kg/injection, schedule: Q07DX005 (ip), vehicle: saline): 54 % of control
T/C (endpoint: mean tumor weight, dose: 400.0 mg/kg/injection, schedule: Q07DX006 (ip), vehicle: saline): 39 % of control
T/C (endpoint: mean tumor weight, dose: 400.0 mg/kg/injection, schedule: Q07DX007 (ip), vehicle: saline): 25 % of control
T/C (endpoint: mean tumor weight, dose: 800.0 mg/kg/injection, schedule: Q07DX005 (ip), vehicle: saline): 36 % of control
T/C (endpoint: mean tumor weight, dose: 800.0 mg/kg/injection, schedule: Q07DX007 (ip), vehicle: saline): 49 % of control

O=C1c2cccc(NCCCNCCO)c2C(=O)c2cccc(NCCCNCCO)c21
T/C (endpoint: median tumor weight change, dose: 6.25 mg/kg/injection, schedule: Q01DX001 (ip), vehicle: acid diluted with saline): 36 % of control
T/C (endpoint: median tumor weight change, dose: 12.5 mg/kg/injection, schedule: Q01DX001 (ip), vehicle: acid diluted with saline): 47 % of control
T/C (endpoint: median tumor weight change, dose: 25.0 mg/kg/injection, schedule: Q01DX001 (ip), vehicle: acid diluted with saline): 29 % of control
T/C (endpoint: median tumor weight change, dose: 50.0 mg/kg/injection, schedule: Q01DX001 (ip), vehicle: acid diluted with saline): 23 % of control
T/C (endpoint: median tumor weight change, dose: 100.0 mg/kg/injection, schedule: Q01DX001 (ip), vehicle: acid diluted with saline): 54 % of control

Nc1nc(N)c2c(Cl)c(CNc3ccc(Cl)c(Cl)c3)ccc2n1
T/C [6]: 55 % of control
T/C [7]: 78 % of control
T/C [8]: 82 % of control
T/C [9]: 8 % of control
T/C (endpoint: median tumor weight (est.), dose: 100.0 mg/kg/injection, schedule: Q07DX005 (ip), vehicle: saline with Tween-80): 27 % of control

OCCCN1CCCCC1CO (configuration not stated)
T/C [14]: 78 % of control
T/C [15]: 103 % of control
T/C [16]: 105 % of control
T/C [17]: 103 % of control

Nc1cccc(=O)[nH]1
T/C [3]: 21 % of control
T/C [4]: 68 % of control
T/C [5]: 70 % of control
T/C (endpoint: median tumor weight (est.), dose: 400.0 mg/kg/injection, schedule: Q07DX005 (ip), vehicle: saline): 96 % of control and 100 % of control
T/C (endpoint: median tumor weight (est.), dose: 400.0 mg/kg/injection, schedule: Q07DX005 (ip), vehicle: suspension in saline): 47 % of control
T/C (endpoint: median tumor weight (est.), dose: 800.0 mg/kg/injection, schedule: Q07DX005 (ip), vehicle: saline): 78 % of control
T/C (endpoint: median tumor weight (est.), dose: 800.0 mg/kg/injection, schedule: Q07DX005 (ip), vehicle: suspension in saline): 56 % of control
T/C (endpoint: median tumor weight (est.), dose: 1600.0 mg/kg/injection, schedule: Q07DX005 (ip), vehicle: suspension in saline): 59 % of control
T/C (endpoint: median tumor weight change, dose: 62.5 mg/kg/injection, schedule: Q01DX001 (ip), vehicle: saline): 55 % of control
T/C [14]: 78 % of control
T/C [15]: 90 % of control
T/C [16]: 72 % of control
T/C [17]: 70 % of control

CN(C)N=Nc1cn[nH]c1C(N)=O
T/C [11]: 97 % of control
T/C [12]: 56 % of control
T/C [13]: 73 % of control
T/C (endpoint: median tumor weight (est.), dose: 200.0 mg/kg/injection, schedule: Q07DX005 (ip), vehicle: Klucel (hydroxypropylcellulose) (HPC)): 57 % of control
